In PubChem BioAssay (NCI):
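48-hour exposure; five concentrations; linearly interpolated endpoints. GI50: concentration for 50% inhibition of growth. TGI marks complete inhibition of growth.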

Legend:
Assay in all cases: DTP human tumour cell line panel, 48 h
OVCAR-8 ovarian = tested on: OVCAR-8 ovarian
RXF 393 renal = tested on: RXF 393 renal
NCI-H460 lung = tested on: NCI-H460 lung
SF-268 CNS = tested on: SF-268 CNS
SN12C renal = tested on: SN12C renal
NCI/ADR-RES ovarian = tested on: NCI/ADR-RES ovarian
A498 renal = tested on: A498 renal
U251 CNS = tested on: U251 CNS
MDA-MB-435 = tested on: MDA-MB-435
DU-145 prostate = tested on: DU-145 prostate

Compound	TGI (OVCAR-8 ovarian) [µM]	TGI (RXF 393 renal) [µM]	TGI (NCI-H460 lung) [µM]	TGI (SF-268 CNS) [µM]	TGI (SN12C renal) [µM]	TGI (NCI/ADR-RES ovarian) [µM]	TGI (A498 renal) [µM]	TGI (U251 CNS) [µM]	TGI (MDA-MB-435) [µM]	TGI (DU-145 prostate) [µM]	GI50 (OVCAR-8 ovarian) [µM]	GI50 (RXF 393 renal) [µM]	GI50 (NCI-H460 lung) [µM]	GI50 (SF-268 CNS) [µM]	GI50 (MDA-MB-435) [µM]	GI50 (SN12C renal) [µM]	GI50 (DU-145 prostate) [µM]	GI50 (NCI/ADR-RES ovarian) [µM]	GI50 (U251 CNS) [µM]
O=C1CNC(=O)N1	> 1120	> 1120	> 1120	> 1120	> 1120	> 1120	> 1120	> 1120	–	–	–	–	–	–	–	–	–	–	–
Cc1cc(C)c(S(=O)(=O)N(CCCCCCN)OCCCON(CCCCCCN)S(=O)(=O)c2c(C)cc(C)cc2C)c(C)c1	3.34	3.18	3.07	3.42	3.89	34.6	3.02	3.15	3.99	2.76	–	–	–	–	–	–	–	–	–
CCOC(=O)c1csc(NC(=O)CCN2CCOCC2)n1	87.2	> 100	> 100	–	–	> 100	> 100	> 100	> 100	> 100	–	–	–	–	–	–	–	–	–
Fc1cc(C2=Nn3c(nnc3-c3cc(F)c(Cl)cc3Cl)SC2)c(Cl)cc1Cl	97.3	62.5	> 100	61.3	55.7	> 100	–	64	83.2	> 100	26	23.2	17.6	18.5	27.8	18.4	36.6	27.4	20.4
O=c1n(Cc2ccccc2)c2ccccc2n1CC1CS1 (configuration not stated)	> 100	–	–	> 100	> 100	–	–	–	–	–	–	–	–	–	–	–	–	–	–
CC1(C)CCCC2(C)[C@@H]1CC[C@]13C[C@](C)(CC[C@@H]21)[C@@H]3CO (some centres not stated)	–	> 100	> 100	> 100	> 100	–	–	> 100	–	–	–	–	–	–	–	–	–	–	–
